{"source": "patent US20170335402A1", "about": "“DOT1L INHIBITORS AND USES THEREOF” (Baylor College of Medicine, priority 2014, published 2017)", "type_in_all_cases": "cell-based, human", "key": {"MV411 cells": {"test_system": "MV411 cells", "assay": "Annexin V binding (AVB) flow cytometry apoptosis assay", "details": "MV411; 3 μM, time-dependent beginning at 5-7 days", "procedure": "(§1) For the Annexin V apoptosis assay, 1×10^6 SYC-522-, EPZ004777- or DMSO-treated cells were washed in PBS, resuspended in Ca/HEPES buffer (10 mM HEPES, pH7.4; 140 mM NaCl; 2.5 mM CaCl2) and incubated with Annexin V-APC (BD Pharmingen, San Jose, Calif.) for 30 min then analyzed by flow cytometry.\n(§2) Cells were harvested at each re-plating of the cell proliferation assay described above then split for simultaneous analysis of apoptosis, cell cycle, and differentiation. Apoptosis was determined by Annexin V binding (AVB) flow cytometry assay. The harvested cells were re-suspended in 1×AVB buffer, stained with APC-conjugated Annexin V (BD), then analyzed by flow cytometry. For cell cycle analysis, cells were pelleted, washed in PBS with 0.5% bovine serum albumin, then fixed in 70% ice-cold methanol. The fixed cells were then incubated in PBS with 100 μg/mL RNAse (Invitrogen) for 15 minutes in a 37° C. water bath. Propidium iodide (PI) in PBS at a final concentration of 25 μg/mL was then added and the cells were analyzed by flow cytometry. For differentiation, cells were pelleted, and stained with APC-conjugated CD14 then washed and re-suspended in media containing PI to exclude dead cells. All analyses were performed using an LSR II flow cytometer (BD biosciences) and the data were analyzed using FlowJo (TreeStar, V8.8.7)."}, "OCI AML2 cells [1]": {"test_system": "OCI AML2 cells", "assay": "Annexin V binding (AVB) flow cytometry apoptosis assay", "procedure": "as §1, §2"}, "OCI AML3 cells [2]": {"test_system": "OCI AML3 cells", "assay": "Annexin V binding (AVB) flow cytometry apoptosis assay", "procedure": "as §1, §2"}, "[3]": {"test_system": "H3K79me2 in OCI AML2 cells", "assay": "Immunoblot analysis of cellular H3K79 methylation"}, "OCI AML2 cells [4]": {"test_system": "OCI AML2 cells", "assay": "Quantitative RT PCR of leukemogenic gene expression", "details": "3 μM", "procedure": "(§3) RNA was extracted from OCI AML2 and OCI AML3 cells treated with 3 μM EPZ004777 or DMSO control using RNeasy RNA isolation kit (Qiagen) per manufacturer's protocol. RNA was quantified using Nanodrop instrument and 300-1000 ng (equal quantities for EPZ004777 treated and DMSO controls) of RNA were reverse transcribed using the SuperScript® III First-Strand Synthesis System (Invitrogen). Reverse transcription quantitative PCR was then performed in triplicate using predesigned TaqMan primer and probe sets for HOXA9 (Hs00365956_m1), MEIS1 (Hs01017441_m1), HOXB8 (Hs00256885_m1), HOXB3 (Hs01587922_m1), and GAPDH (Hs02758991_ml) (FAM-MGB; Applied Biosystems) for 30 cycles using an AbiPrism 7900HT (Applied Biosystems). Target gene numbers were normalized to the ribosomal RNA 18s (VIC-MGB; Applied Biosystems) and fold-change determined by the 2^−ΔΔCT equation."}, "OCI AML3 cells [5]": {"test_system": "OCI AML3 cells", "assay": "Quantitative RT PCR of leukemogenic gene expression", "details": "3 μM", "procedure": "as §3"}}}
{"molecule": "CC(C)N(CCCNC(=O)Nc1ccc(C(C)(C)C)cc1)C[C@H]1O[C@@H](n2ccc3c(N)ncnc32)[C@H](O)[C@@H]1O", "note": "[EPZ004777]", "values": [{"measurement": "induction of apoptosis (Annexin V binding)", "setting": "MV411 cells", "result": "substantial induction of apoptosis"}, {"measurement": "induction of apoptosis (Annexin V binding)", "setting": "OCI AML2 cells [1]; 3 μM, time course", "result": "minimal induction of apoptosis that plateaued at 7 days of therapy"}, {"measurement": "induction of apoptosis (Annexin V binding)", "setting": "OCI AML2 cells [1]; increasing concentrations", "result": "dose-dependent induction of apoptosis"}, {"measurement": "induction of apoptosis (Annexin V binding)", "setting": "OCI AML3 cells [2]; 3 μM, time-dependent beginning at 5-7 days", "result": "substantial induction of apoptosis"}, {"measurement": "induction of apoptosis (Annexin V binding)", "setting": "OCI AML3 cells [2]; increasing concentrations", "result": "dose-dependent induction of apoptosis"}, {"measurement": "cellular H3K79 methylation", "setting": "[3]", "result": "inhibited in a dose- and time-dependent fashion"}, {"measurement": "expression of GAPDH (housekeeping gene)", "setting": "OCI AML2 cells [4]", "result": "not affected"}, {"measurement": "expression of HOXA9", "setting": "OCI AML2 cells [4]", "result": "reduced the expression"}, {"measurement": "expression of MEIS1", "setting": "OCI AML2 cells [4]", "result": "reduced the expression"}, {"measurement": "expression of GAPDH (housekeeping gene)", "setting": "OCI AML3 cells [5]", "result": "not affected"}, {"measurement": "expression of HOXB cluster genes", "setting": "OCI AML3 cells [5]", "result": "reduced the expression"}, {"measurement": "expression of MEIS1", "setting": "OCI AML3 cells [5]", "result": "reduced the expression"}]}
